Source: patent US10899788B2, “Cyclic phosphate substituted nucleoside compounds and methods of use thereof for the treatment of viral diseases” (MERCK SHARP & DOHME CORP., priority 2016, dated 2021)

Tests used:
[1] = Cytotoxicity assay in replicon cells (MTS); type: cell-based; settings: HCV replicon cells (1b-Con1), three days post dosing, head prints EDU, method MTS, read-out: CC50 (EDU) Range
Procedure: (§1) To measure cell-based anti-HCV activity of the compounds of the present invention, replicon cells (1b-Con1) are seeded at 5000 cells/well in 96-well plates one day prior to treatment with a compound of the invention. Various concentrations of a test compound of the invention in DMSO are then added to the replicon cells, with the final concentration of DMSO at 0.5% and fetal bovine serum at 10% in the assay media. Cells are harvested three days post-dosing, and the replicon RNA level is determined using real-time RT-PCR (Taqman assay) with GAPDH RNA as endogenous control. EC50 values are calculated from experiments with 10 serial twofold dilutions of the inhibitor in triplicate. To measure cytotoxicity in replicon cells of an inhibitor, an MTS assay is performed according to the manufacturer's protocol for CellTiter 96 Aqueous One Solution Cell Proliferation Assay (Promega, Cat #G3580) three days post dosing on cells treated identically as in replicon activity assays. […] Cytotoxicity in other types of cells may be measured using the same MTS protocol.
(§2) Data were obtained using this method for selected compounds of the present invention, and are set forth below in Table 2.

[2] = test system: HCV replicon cells (1b-Con1); test: Replicon activity assay (cell-based anti-HCV activity); settings: Hepatitis C virus, 72 h, three days post-dosing, replicon RNA level by real-time RT-PCR, read-out: EC50 (1b) Range
Procedure: as §1, §2

| Compound | CC50 at 3 days [1] [µM] | EC50 [2] [µM] |
| --- | --- | --- |
| CC(C)OC(=O)CCCO[P@]1(=O)OC[C@H]2O[C@@H](n3ccc(N)nc3=O)[C@](C)(Cl)[C@@H]2O1 [Compound 8B] | > 50 | 0.25 to 1 |
| CC(C)OC(=O)CCO[P@@]1(=O)OC[C@H]2O[C@@H](n3ccc(=O)[nH]c3=O)[C@](C)(Cl)[C@@H]2O1 [Compound 27A] |  | 1 to 10 |
| CC(C)OC(=O)CCO[P@]1(=O)OC[C@H]2O[C@@H](n3ccc(=O)[nH]c3=O)[C@](C)(Cl)[C@@H]2O1 [Compound 27B] |  | 1 to 10 |
| C#C[C@]1(C)[C@@H]2OP(=O)(OCCCC(=O)OC3CCCC3)OC[C@H]2O[C@H]1n1ccc(=O)[nH]c1=O (stereo partly drawn) [7A or 7B] |  | ≤ 0.25 |
| CCOc1nc(N)nc2c1ncn2[C@@H]1O[C@@H]2CO[P@](=O)(OCCCC(=O)OC(C)C)O[C@H]2[C@@]1(C)Cl [Compound 9A] | > 50 | > 10 |
| C[C@@]1(N)[C@@H]2O[P@@](=O)(OCCCCC(=O)OC3CCCC3)OC[C@H]2O[C@H]1n1ccc(=O)[nH]c1=O [Compound 17A] | > 50 | > 10 |
| C#C[C@]1(C)[C@@H]2O[P@@](=O)(OCCCC(=O)OC(C)C)OC[C@H]2O[C@H]1n1ccc(=O)[nH]c1=O [Compound 11A] | > 50 | 1 to 10 |
| CC(C)OC(=O)CCCCCO[P@]1(=O)OC[C@H]2O[C@@H](n3ccc(=O)[nH]c3=O)[C@](C)(N)[C@@H]2O1 [Compound 25B] |  | > 10 |
| CCOc1nc(N)nc2c1ncn2[C@@H]1O[C@@H]2CO[P@@](=O)(OCCCC(=O)OC(C)C)O[C@H]2[C@@]1(C)Cl [Compound 9B] | > 50 | ≤ 0.25 |
| C#C[C@]1(C)[C@@H]2O[P@](=O)(OCCCCC(=O)OCC)OC[C@H]2O[C@H]1n1ccc(=O)[nH]c1=O [Compound 20B] | > 50 | > 10 |
| C#C[C@]1(C)[C@@H]2O[P@@](=O)(OCCC(=O)OC(C)C)OC[C@H]2O[C@H]1n1ccc(=O)[nH]c1=O [Compound 26A] | > 50 | > 10 |
| CC(C)OC(=O)CCCO[P@@]1(=O)OC[C@H]2O[C@@H](n3ccc(N)nc3=O)[C@](C)(Cl)[C@@H]2O1 [Compound 8A] | > 50 | 1 to 10 |
| C#C[C@]1(C)[C@@H]2O[P@](=O)(OCCCCC(=O)OC(C)C)OC[C@H]2O[C@H]1n1ccc(=O)[nH]c1=O [Compound 15B] | > 50 | > 10 |
| CC(C)OC(=O)CCO[P@]1(=O)OC[C@H]2O[C@@H](n3ccc(=O)[nH]c3=O)[C@](C)(N)[C@@H]2O1 [Compound 28B] | > 50 | > 10 |
| C[C@@]1(Cl)[C@@H]2O[P@](=O)(OCCCC(=O)OC3CCCC3)OC[C@H]2O[C@H]1n1ccc(N)nc1=O [Compound 6B] | > 50 | ≤ 0.25 |
| CC(C)OC(=O)CCCCCO[P@@]1(=O)OC[C@H]2O[C@@H](n3ccc(=O)[nH]c3=O)[C@](C)(N)[C@@H]2O1 [Compound 25A] |  | > 10 |
| C#C[C@]1(C)[C@@H]2O[P@@](=O)(OCCCCC(=O)OCC)OC[C@H]2O[C@H]1n1ccc(=O)[nH]c1=O [Compound 20A] | > 50 | > 10 |
| C#C[C@@]1(O)[C@@H]2O[P@@](=O)(OCCCC(=O)OC(C)C)OC[C@H]2O[C@H]1n1ccc(=O)[nH]c1=O [Compound 13A] | > 50 | > 10 |
| CC(C)OC(=O)CCO[P@@]1(=O)OC[C@H]2O[C@@H](n3ccc(=O)[nH]c3=O)[C@](C)(N)[C@@H]2O1 [Compound 28A] | > 50 | > 10 |
| CC(C)OC(=O)CCCCO[P@]1(=O)OC[C@H]2O[C@@H](n3ccc(=O)[nH]c3=O)[C@](C)(Cl)[C@@H]2O1 [Compound 18B] | > 50 | 1 to 10 |
| C#C[C@@]1(O)[C@@H]2O[P@](=O)(OCCCC(=O)OC(C)C)OC[C@H]2O[C@H]1n1ccc(=O)[nH]c1=O [Compound 13B] | > 50 | 1 to 10 |
| CC(C)OC(=O)CCCCO[P@]1(=O)OC[C@H]2O[C@@H](n3ccc(=O)[nH]c3=O)[C@](C)(N)[C@@H]2O1 [Compound 14B] | > 50 | > 10 |
